{"source": "patent US20240269139A1", "about": "“COMPOUNDS FOR TARGETED PROTEIN DEGRADATION OF KINASES” (DANA-FARBER CANCER INSTITUTE, INC., priority 2020, published 2024)", "key": {"[1]": {"biological_target": "protein kinases (human kinome) (Homo sapiens, UniProt Q16877)", "assay_type": "cell-based", "settings": "PFKFB4 (Q16877); experiment wp071"}, "[2]": {"biological_target": "T1, protein kinases (human kinome) (Homo sapiens, UniProt P52789)", "T1 sequence (P52789 1-917)": "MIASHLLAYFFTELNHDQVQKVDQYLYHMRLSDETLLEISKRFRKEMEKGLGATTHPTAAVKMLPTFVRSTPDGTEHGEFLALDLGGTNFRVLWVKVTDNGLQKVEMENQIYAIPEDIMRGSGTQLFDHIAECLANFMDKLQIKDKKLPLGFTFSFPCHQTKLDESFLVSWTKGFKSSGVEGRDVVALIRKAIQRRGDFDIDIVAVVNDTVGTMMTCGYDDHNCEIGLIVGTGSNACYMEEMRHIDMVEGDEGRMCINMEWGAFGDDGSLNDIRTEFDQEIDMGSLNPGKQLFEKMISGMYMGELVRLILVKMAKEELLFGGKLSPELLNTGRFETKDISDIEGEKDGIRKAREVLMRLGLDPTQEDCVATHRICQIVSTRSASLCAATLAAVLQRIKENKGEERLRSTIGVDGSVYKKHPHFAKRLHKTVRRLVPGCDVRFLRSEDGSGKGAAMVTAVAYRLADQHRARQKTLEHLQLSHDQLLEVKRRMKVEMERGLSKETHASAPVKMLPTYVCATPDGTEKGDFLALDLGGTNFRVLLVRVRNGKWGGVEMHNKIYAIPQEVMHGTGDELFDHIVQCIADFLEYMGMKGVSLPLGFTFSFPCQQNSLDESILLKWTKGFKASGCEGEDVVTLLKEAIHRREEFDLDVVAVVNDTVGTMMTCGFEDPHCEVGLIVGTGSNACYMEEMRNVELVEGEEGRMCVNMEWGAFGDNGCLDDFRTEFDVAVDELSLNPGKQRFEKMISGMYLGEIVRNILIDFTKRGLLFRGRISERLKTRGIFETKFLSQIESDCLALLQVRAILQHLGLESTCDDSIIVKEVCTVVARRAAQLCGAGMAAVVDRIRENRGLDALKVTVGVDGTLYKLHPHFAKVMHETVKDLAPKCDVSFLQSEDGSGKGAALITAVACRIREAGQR", "assay_type": "cell-based", "settings": "HK2 (P52789); experiment wp076"}, "[3]": {"biological_target": "protein kinases (human kinome) (Homo sapiens, UniProt Q14289)", "assay_type": "cell-based"}, "[4]": {"biological_target": "protein kinases (human kinome) (Homo sapiens, UniProt P51812)", "assay_type": "cell-based", "settings": "RPS6KA3 (P51812), experiment wp076"}, "[5]": {"biological_target": "T2, protein kinases (human kinome) (Homo sapiens, UniProt O60285)", "T2 sequence (O60285 1-661)": "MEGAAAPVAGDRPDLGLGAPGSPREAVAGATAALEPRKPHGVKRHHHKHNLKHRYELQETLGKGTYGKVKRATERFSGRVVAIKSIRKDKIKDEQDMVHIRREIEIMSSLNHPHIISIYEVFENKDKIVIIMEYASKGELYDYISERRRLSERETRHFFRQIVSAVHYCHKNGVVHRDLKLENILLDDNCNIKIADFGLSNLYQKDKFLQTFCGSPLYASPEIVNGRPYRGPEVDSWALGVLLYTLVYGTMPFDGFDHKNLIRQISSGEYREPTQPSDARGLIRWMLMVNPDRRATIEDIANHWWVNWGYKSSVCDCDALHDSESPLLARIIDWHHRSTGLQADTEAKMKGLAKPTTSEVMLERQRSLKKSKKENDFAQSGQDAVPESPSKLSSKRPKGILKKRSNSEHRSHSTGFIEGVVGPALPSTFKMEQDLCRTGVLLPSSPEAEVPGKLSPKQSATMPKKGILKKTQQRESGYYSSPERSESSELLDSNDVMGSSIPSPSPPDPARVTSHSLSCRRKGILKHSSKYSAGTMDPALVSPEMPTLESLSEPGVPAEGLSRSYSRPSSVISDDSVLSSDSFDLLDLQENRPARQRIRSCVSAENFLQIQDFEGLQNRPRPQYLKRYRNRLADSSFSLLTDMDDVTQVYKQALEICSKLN", "assay_type": "cell-based", "settings": "NUAK1 (O60285), experiment wp076"}, "[6]": {"biological_target": "protein kinases (human kinome) (Homo sapiens, UniProt Q9BYT3)", "assay_type": "cell-based", "settings": "STK33 (Q9BYT3-1), experiment wp076"}, "[7]": {"biological_target": "protein kinases (human kinome) (Homo sapiens, UniProt P30291)", "assay_type": "cell-based", "settings": "experiment wp076"}, "[8]": {"system": "protein kinases (human kinome)", "assay_type": "cell-based"}, "[9]": {"biological_target": "T3, protein kinases (human kinome) (Homo sapiens, UniProt O14965)", "T3 sequence (O14965 1-403)": "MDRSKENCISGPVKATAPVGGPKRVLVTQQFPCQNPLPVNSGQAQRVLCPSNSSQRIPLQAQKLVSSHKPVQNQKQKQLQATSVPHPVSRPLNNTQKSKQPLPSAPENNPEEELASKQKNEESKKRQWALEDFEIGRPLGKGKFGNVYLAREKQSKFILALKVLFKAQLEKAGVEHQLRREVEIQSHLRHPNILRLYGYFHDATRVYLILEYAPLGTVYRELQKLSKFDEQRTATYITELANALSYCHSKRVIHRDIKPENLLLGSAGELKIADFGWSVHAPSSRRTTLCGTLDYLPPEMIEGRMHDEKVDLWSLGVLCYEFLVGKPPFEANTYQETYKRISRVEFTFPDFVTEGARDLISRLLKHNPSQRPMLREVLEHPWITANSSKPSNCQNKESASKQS", "assay_type": "cell-based", "settings": "experiment wp076"}, "[10]": {"biological_target": "T4, CRBN (Homo sapiens, UniProt Q96SW2)", "T4 construct": "HEK293T cells stably expressing the BRD4BD2-GFP with mCherry reporter; endogenous in cells; host or cells: HEK293T stably expressing BRD4BD2-GFP / mCherry reporter", "assay": "Competitive displacement assay for cellular CRBN engagement (BRD4BD2-GFP reporter, dBET6)", "assay_type": "cell-based, H. sapiens", "settings": "5 hours in presence of dBET6", "protocol": "HEK293T cells stably expressing the BRD4BD2-GFP with mCherry reporter were seeded at 30-50% confluency in 384-well plates with 50 μL FluoroBrite™ Dulbecco's Modified Eagle's medium (DMEM) media (Thermo Fisher Scientific. A18967) containing 10% fetal bovine serum (FBS) per well a day before compound treatment. Degrader titrations and 100 nM dBET6 or 250 nM AT1 were dispensed using a D300e Digital Dispenser (HP), normalized to 0.5% DMSO, and incubated with cells for 5 hours. Assay plates were imaged using Acumen® (TTP Labtech), as described above."}, "[11]": {"assay_type": "cell-based, H. sapiens", "settings": "MOLT-4, 1 μM, 5 h, 5 μM CB-5083"}, "[12]": {"biological_target": "T5, CRBN-degrader-kinase ternary complexes (Homo sapiens, UniProt Q96SW2)", "T5 construct": "host or cells: HEK293T", "assay": "FLAG-CRBN affinity purification TMT LC-MS3 (AP-MS) of degrader-mediated ternary complexes", "assay_type": "cell-based, H. sapiens", "settings": "HEK293T, 1 μM, 5 h, proteasome inhibitor", "excerpt": "An important aspect of protein degraders is the multifaceted nature of the molecule that enables heightened target selectivity due to differences in complementarity of target-ligase interactions, which is not a consideration when assessing selectivity of inhibitors for target engagement (Famaby el al., Nat Chem Biol 15:672-680 (2019)). For compound-induced degradation to be successful, productive ternary complex formation (ligase-degrader-POI) is necessary for proximity-mediated ubiquitin transfer onto the POI. […] Cellular affinity purification was performed, followed by mass spectrometry (AP-MS) of FLAG-tagged CRBN transiently overexpressed in HEK293T cells. FLAG-CRBN expressing cells were co-treated with proteosome inhibitor and 1 μM of each degrader for 5 h, and the degree of kinase target enrichment was compared to kinase degradation hits in matched global proteomics analysis experiments (FIG. 3A, FIG. 3C). The proteins identified as complexed with CRBN were enriched for kinases as well as their known binding partners such as Cyclin B (CDK1) and RASSF1 (STK4), consistent with the binding profiles of the assayed degraders. All kinases identified by AP-MS except CSNK1A1 were also detected in the HEK293T whole proteome degrader profiling experiment, allowing us to interrogate trends across 52 unique kinases (FIG. 4A; FIG. 11B). Limitations of this experiment include the potential loss of transient or weakly bound complexes in the enrichment and subsequent wash steps, the inherent noise associated with AP-MS relative to global proteomics analysis (Dunham et al., Proteomics 12:1576-1590 (2012): Yugandhar et al., Comput Struct Biotechnol J 17:805-811 (2019)) and the short time point of the experiment, which precludes detection of degradation events with slow kinetics. Therefore, the relationship between the formation of abundant, stable ternary complexes and rapid degradation was assessed.\nHEK293T cells were seeded into 15 cm plates and cells were transiently transfected with 8 μg of pNTM-FLAG-CRBN construct using lipofectamine 2000. […] Cells were harvested with non-enzymatic CellStripper™ Dissociation reagent (Corning®), followed by three washes with cold PBS and snap freezing. Cell lysis was performed by the addition of IP lysis buffer (50 mM Tris. pH 7.5, 0.5% NP-40, 1 mM EDTA, 10% glycerol and 200 mM NaCl) containing protease inhibitor cocktail (cOmplete™) and relevant co-treatment (above), followed by end-over-end rotation at 4° C. for 3 hours. Lysate was clarified by centrifugation and salt concentration diluted to 100 mM NaCl with the addition of 0 mM NaCl lysis buffer (containing protease inhibitors and 1 μM of relevant compounds to retain temary complexes throughout binding). Lysate was added to 20 μL of pre-washed anti-FLAG M2 magnetic bead slurry (MilliporeSigma) and incubated with end-over-end rotation at 4° C. overnight. Beads were washed six times with 100 mM NaCl lysis buffer containing 1 μM of relevant degraders to retain ternary complexes throughout wash steps.\nProteins were eluted in a two-step elution with the addition of 0.1 M Glycine hydrochloride (MilliporeSigma) and elution buffered to pH 8.5 using 200 mM Tris buffer, pH 8.5. […] Protein pellets were resuspended in 50 μL of EPPs pH 8 and first digested with 2 μg LysC for 12 h at room temperature (RT), followed by 1 μg of trypsin for 6 hours at 37° C."}}, "note": "Like-named read-outs stand apart in the source and are kept apart here."}
{"smiles": "COc1cc(N2CCN(CC(=O)NCCCCCCNc3cccc4c3C(=O)N(C3CCC(=O)NC3=O)C4=O)CC2)ccc1Nc1ncc2c(n1)N(C)c1ccccc1C(=O)N2CC(F)(F)F", "note": "(stereo not shown) [FMF.04.135.1]", "values": [{"measurement": "logFC", "setting": "[1]", "result": "−0.4969"}]}
{"smiles": "CNC(=O)c1ccccc1Nc1cc(Nc2ccc(N3CCN(CCCCCCCCNc4cccc5c4C(=O)N(C4CCC(=O)NC4=O)C5=O)CC3)cc2OC)ncc1C(F)(F)F", "note": "(stereo not shown) [MFH.5.116.1]", "values": [{"measurement": "logFC", "setting": "[2]", "result": "−0.4347"}, {"measurement": "logFC", "setting": "[3]; PTK2B (Q14289-1) protein abundance, degrader vs DMSO, down", "result": "−2.946"}, {"measurement": "logFC PTK2B", "setting": "[3]; PTK2B, accession Q14289-1, experiment wp076, direction of change down", "result": "−2.946"}, {"measurement": "logFC", "setting": "[4]", "result": "−0.369"}, {"measurement": "logFC", "setting": "[4]; direction down", "result": "−0.369"}, {"measurement": "logFC", "setting": "[5]", "result": "−0.7078"}, {"measurement": "logFC", "setting": "[5]; direction down", "result": "−0.7078"}, {"measurement": "logFC", "setting": "[6]", "result": "−1.382"}, {"measurement": "logFC", "setting": "[6]; direction down", "result": "−1.382"}, {"measurement": "logFC of WEE1", "setting": "[7]; WEE1 P30291-1, degrader vs DMSO", "result": "−0.4799"}, {"measurement": "logFC WEE1 (P30291-1)", "setting": "[7]", "result": "−0.4799"}, {"measurement": "logFC RPS6KA1", "setting": "[8]; RPS6KA1 (Q15418-2), experiment wp076", "result": "−0.5757"}, {"measurement": "logFC RPS6KA1 (Q15418-2)", "setting": "[8]; experiment wp076", "result": "−0.5757"}, {"measurement": "logFC AURKA (O14965)", "setting": "[9]", "result": "−0.707"}]}
{"smiles": "Nc1ncc(-c2ccc(S(=O)(=O)N(CCCNC(=O)CCOCCOCCOCCOCCOCCNc3cccc4c3C(=O)N(C3CCC(=O)NC3=O)C4=O)C3CC3)cc2)cc1-c1ccc2c(c1)CCNC2=O", "note": "(stereo not shown) [WH-10417-099]", "values": [{"measurement": "cellular permeability / CRBN engagement", "setting": "[10]", "result": "able to permeate the cell membrane and bind to the CRBN E3 ligase"}, {"measurement": "targets with significantly different degrader efficacy in the different cell lines with no obvious difference in protein expression", "setting": "[8]; MOLT-4, KELLY, HEK293T", "result": "GSK3B"}, {"measurement": "kinases the bifunctional compound degrades", "setting": "[8]; as stated for the structure in the embodiments", "result": "CDK14, CSNK1A1, CSNK1D, CSNK1E, GSK3A, GSK3B, LIMK2, MAP3K1, MINK1, NUAK1, PAK4, PIM2, STK10, STK17B, STK35, and STK4"}, {"measurement": "Kinase hits", "setting": "[8]; kinases significantly downregulated vs DMSO (fold change cutoff −1.25, P-value<0.01), ≤8 h, 0.1-5 μM degrader, 7 cell lines", "result": "CDK14, CSNK1A1, CSNK1D, CSNK1E, GSK3A, GSK3B, LIMK2, MAP3K1, MINK1, NUAK1, PAK4, PIM2, STK10, STKI7B, STK35, STK4"}, {"measurement": "Total no. kinase hits", "setting": "[8]; number of degraded kinases per library compound", "result": 13}, {"measurement": "STK4 degradation rescue on p97 inhibition", "setting": "[11]", "result": "very little degradation rescue"}, {"measurement": "IRAK1: ternary complex formation with CRBN versus degradation", "setting": "[12]", "result": "complex formation does not predict degradation"}]}
